Where no end group is shown, it is not given here.
These compounds were tested against DR04:01 protein (Homo sapiens, UniProt P01903+P01911, A100K/A169T/F76Y/I96L/K127E/L162R/M171V/N62H/P40V/Q125Y/R42H/S133A/S149N/S66Y/V115G/V209L/W38E) (assay: Peptide binding assay).

IC50	Compound
116 nM	AAFRIAATAANAA [Holl 5a 167-186]
970 nM	AAFRTAATAADAA [Hor v 5a 167-186]
50 nM	AAYKIAATAANAA [Dac g 5a 167-186]
532 nM	AAYRTAATAANAA [Lol p 5a 167-186]
410 nM	DSYKFIPTLVAAV [Lol p 5a 199-218]
105 nM	EAYKFIPSLETAV [Holl 5a 199-218]
275 nM	EEPIAPYHFDLSGHAFGAMA [Phl p 1 97-116]
435 nM	EEPIAPYHFDLSGHAFGSMA [Lol p 1 97-116]
74.6 nM	ESYKFIPTLEAAV [Dac g 5a 199-218]
51 nM	ETYKFIPSLEAAV [Pha a 5a 199-218]
2920 nM	SEFEDVIPEGWKADTSYSAK [Lol p 1 221-240]

Compound	IC50
CC[C@H](C)[C@H](NC(=O)[C@@H](NC(=O)[C@H](CC(=O)O)NC(=O)[C@H](CCC(=O)O)NC(=O)[C@H](C)NC(=O)[C@H](CCC(=O)O)NC(=O)[C@@H](N)[C@@H](C)O)C(C)C)C(=O)N1CCC[C@H]1C(=O)N[C@@H](CCC(=O)O)C(=O)NCC(=O)N[C@@H](Cc1c[nH]c2ccccc12)C(=O)N[C@@H](CCCCN)C(=O)N[C@@H](C)C(=O)N[C@@H](CC(=O)O)C(=O)N[C@H](C(=O)N[C@@H](CO)C(=O)N[C@@H](Cc1ccc(O)cc1)C(=O)N[C@@H](CCC(=O)O)C(=O)N[C@@H](CO)C(=O)N[C@@H](CCCCN)C(=O)O)[C@@H](C)O [Phl p 1 221-240]	2920 nM
ESYKFIPALEAAV [Hor v 5a 199-218]	990 nM
ESYKFIPALEAAV [Phl p 5a 199-218]	970 nM
SEVEDVIPEGWKADTSYEAK [Dac g 1 221-240]	177 nM

Reference: article PMC4069242 (Clinical and experimental allergy : journal of the British …, 2014)
